Assay results from patent US20130071330A1, “METHODS OF IDENTIFYING AGENTS EFFECTIVE TO TREAT COGNITIVE DECLINE AND DISEASES ASSOCIATED THEREWITH” (priority 2010, published 2013).
“Also recorded” adds a separate entry of the source.

Key:
mice = experiment: Fear conditioning assay (Abeta oligomer-induced memory deficit); format: in vivo
Source text: The formation of contextual memories is dependent upon the integrity of medial temporal lobe structures such as the hippocampus. […] Animals that show good learning will express an increase in freezing behavior when placed back into the same context. This freezing is absent in a novel context.

[1] = system: Abeta oligomer effects on membrane trafficking; experiment: MTT membrane trafficking (formazan exocytosis) assay with Abeta oligomers in mature primary neurons; format: cell-based, rat; conditions: for block of Abeta oligomer-caused decrease of intracellular formazan-filled vesicles (puncta): neurons 3 weeks in vitro, for antibody stoichiometric amount (3 μM Aβ, 1.5 μM IgG), added prior to oligomers
Experimental: (§1) MTT assay Primary neurons from E18 Sprague-Dawley rat embryos were plated at optimized concentrations in 384 well plates in NB media (Invitrogen). Neurons were maintained in cultures for 3 weeks, with twice weekly feeding of NB media with N2 supplement (Invitrogen). Vehicle or Abeta oligomer preparations (1.5 uM), followed by compounds were added to cells and incubated for 1 to 24 hr at 37° C. in 5% CO2. MTT reagent (3-(4,5-dimethylthizaol-2-yl)-2,5diphenyl tetrazolium bromide) reagent (Roche Molecular Biochemicals) was reconstituted in phosphate buffered saline to 5 mg/ml. 10 ul of MTT labeling reagent was added to each well and incubated at 37° C. for 1 h, then imaged.
Each assay plate was formatted so that compounds were tested with and without Abeta on each plate.
Experimental controls: Abeta 1-42 oligomers were made and used as positive controls. The oligomers can be made by any method, such as published methods (Dhalgren et al., '02, LeVine '04, Shrestha et al., '06, Puzzo et al., '05, Barghorn et al., '05, Johansson et al., '06). […] Negative controls included vehicle-treated neurons as well as neurons treated with Compound Z. These controls, on each plate, serve as normalization tools to calibrate assay performance on a plate-by-plate basis.
Statistical software and Analysis: Data handling and analysis was accomplished by Cellomics VTI image analysis software and STORE automated database software. Statistical comparisons were made via pairwise Tukey-Kramer analysis to determine the significance of the separation between compound+Abeta oligomers from Abeta alone, and between compound alone from vehicle. […] Power analysis was set for a number of replicate screening wells that will minimize false negatives such as N=4. Rank ordering of compounds was done on the basis of secondary assay mechanism of action and physicochemical properties of the hit structures.
Abeta 1-42 oligomers made according to published methods (Dhalgren et al., '02, LeVine '04, Shrestha et al., '06, Puzzo et al., '05, Barghorn et al., '05, Johansson et al., '06) or isolated from human brain tissue (Walsh et al., '02, Lesne et al., '06, Shankar et al '08) served as positive controls. Toxicity was monitored in each image-based assay via quantification of nuclear morphology visualized with the DNA binding dye DAPI (Invitrogen). Nuclei that were fragmented were considered to be in late stage apoptosis (Majno and Joris '95). Peptide lots producing unusual peptide size ranges or significant toxicity at standard concentrations on neurons were rejected.
Image Processing: Images are captured and analyzed with the Cellomics VTI automated microscope platform. For statistical analysis, a Tukey-Kramer pair-wise comparison with unequal variance is used.
Primary rat neurons grown for at least 3 weeks in vitro were chosen as the basis for this screening assay. […] More complex systems such as acute or organotypic brain slices are very useful but not amenable to high throughput screening. […] For this reason, primary neuronal cultures were chosen because of their ability to be used in high throughput screens and fidelity to what occurs in vivo.
The exocytosis assay was adapted for use with mature primary neuronal cultures grown for 3 weeks in vitro.

[2] = system: Abeta assemblies isolated from patients, membrane trafficking; experiment: Membrane trafficking assay with Abeta assemblies isolated from AD or normal patients; format: cell-based, rat; conditions: FIG. 4
Experimental: as §1
Abeta assemblies were isolated from patients with Alzheimer's Disease (AD) or from normal patients. The Abeta assemblies were tested for their ability to modulate membrane trafficking. […] The assay was performed as described herein.

`COc1cc(CCC(C)NCc2ccc(C(F)(F)F)cc2)ccc1O` (centres unmarked) [Compound Z] was tested, and the “block of oligomer-mediated memory deficits (contextual fear conditioning)” value (mice; 2 pmol dose, given prior to Abeta (200 nM), tested about 24 hours after training, p<0.05) was “completely blocked”, the “block of oligomer effects on memory, dose dependence” value (mice; administered prior to Abeta oligomer administration) was “blocked oligomer effects on memory in a dose-dependent manner” and the adverse behavioral changes (mice; any dose) was “No adverse behavioral changes were observed”. The “effect of compound alone on memory” value (mice; without Abeta, data not shown) was “No effect”, the EC50 ([1]; Neuron, read-out: inhibits oligomer effects on membrane trafficking, EC50, primary rat neurons, Abeta oligomers, FIG. 2B) was 7 µM and the “block of Abeta oligomer-caused decrease of intracellular formazan-filled vesicles (puncta)” value [1] was “inhibits oligomer effects on membrane trafficking; also recorded: effective at stopping Abeta oligomer mediated effects on membrane trafficking”. The “effect on Abeta assemblies isolated from age-matched normal individuals” value ([2]; Abeta assemblies from age-matched normal individuals) was “no effect” and the “block of trafficking effects of AD-brain derived Abeta assemblies” value ([2]; IMW (10-100 KDa) Abeta assemblies isolated from AD patients) was “significantly blocked”.

For `C[C@]12N[C@H](Cc3ccccc31)c1ccccc12` [MK-801, reference compound], the “block of Abeta oligomer-caused decrease of intracellular formazan-filled vesicles (puncta)” value [1] was “none were active”.

For `C[N+](C)(C)CCCCCC[N+](C)(C)C` [hexamethonium bromide, reference compound], the “block of Abeta oligomer-caused decrease of intracellular formazan-filled vesicles (puncta)” value [1] was “none were active”.

In the case of `O[C@H]1[C@H](O)[C@@H](O)[C@H](O)[C@@H](O)[C@@H]1O` [scyllo-inositol, reference compound], the “block of Abeta oligomer-caused decrease of intracellular formazan-filled vesicles (puncta)” value [1] is reported as “none were active”.
